Experimental data reported in ChEMBL document CHEMBL1145758, “In vivo characterization of A-192411: a novel fungicidal lipopeptide (II)” (2003).
≈ marks a conversion by molar mass, not a printed value. Starred links: 1 amine or outer side, 2 acyl side, 3 side chain; linkers in the order of their positions; H or OH if unused. Positions of bridges follow the written chain, without caps; N, C: chain ends. Non-standard residues stand in square brackets, D forms with d. Residues, ends and D or L forms follow the SMILES beside them. *: point of attachment. pTerphenylCO(4''-OnC5H11) = CCCCCOc1ccc(-c2ccc(-c3ccc(C(=O)*)cc3)cc2)cc1; X1 = NCC(=O)Nc1cc(CC[C@H](N[*:1])C(=O)[*:2])ccc1O; X2 = NC(N)=N[C@H]1CC(C(=O)[*:2])N([*:1])C1; Hyp = O=C(O)[C@@H]1C[C@@H](O)CN1; Orn = NCCC[C@H](N)C(=O)O

Assays:
Assay type in all cases: functional
Candida albicans [1] = test: Minimum inhibitory concentration against Candida albicans (CAF2)
Aspergillus fumigatus = test: Minimum inhibitory concentration against Aspergillus fumigatus
Rattus norvegicus = species on record: Rattus norvegicus; test: Minimum inhibitory concentration against Candida albicans (CCH442) tested in rats
Candida albicans [2] = test: Minimum inhibitory concentration against 41 strains of C. albicans; Range is 0.25-1.0 ug/mL
Mus musculus = species on record: Mus musculus; test: Minimum inhibitory concentration against Candida albicans (CCH442) tested in mice

SMILES | MIC (Candida albicans [1]) | MIC (Aspergillus fumigatus) | MIC (Rattus norvegicus) | MIC (Candida albicans [2]) | MIC (Mus musculus)
CCCCCOc1ccc(-c2ccc(-c3ccc(C(=O)N[C@H]4CCCNC(=O)C5C[C@H](N=C(N)N)CN5C(=O)[C@H]([C@@H](C)O)NC(=O)[C@H](CCc5ccc(O)c(NC(=O)CN)c5)NC(=O)[C@@H]5C[C@@H](O)CN5C(=O)[C@H]([C@@H](C)O)NC4=O)cc3)cc2)cc1 (stereo not given in full) ({pTerphenylCO(4''-OnC5H11)}-[Orn]T[Hyp][X1]T[X2]; lactam 1-C) | 0.25 µg/mL (≈ 0.213 µM) | > 100 µg/mL | 0.5 µg/mL (≈ 0.425 µM) | 0.25 µg/mL (≈ 0.213 µM) | 0.5 µg/mL (≈ 0.425 µM)
C[C@@H]1[C@H](O)[C@@H](C)/C=C/C=C/C=C/C=C/C=C/C=C/C=C/[C@H](O[C@@H]2O[C@H](C)[C@@H](O)[C@H](N)[C@@H]2O)C[C@@H]2O[C@](O)(C[C@@H](O)C[C@@H](O)[C@H](O)CC[C@@H](O)C[C@@H](O)CC(=O)O[C@H]1C)C[C@H](O)[C@H]2C(=O)O [AMPHOTERICIN B] | 0.5 µg/mL (≈ 0.541 µM) | 0.78 µg/mL (≈ 0.844 µM) | 1 µg/mL (≈ 1.08 µM) |  | 1 µg/mL (≈ 1.08 µM)
OC(Cn1cncn1)(Cn1cncn1)c1ccc(F)cc1F [FLUCONAZOLE] |  |  | 0.19 µg/mL (≈ 0.62 µM) |  | 
